Measurements published in US11813277B2, “Methods and agents for modulating inflammation” (The Regents of the University of California, priority 2018, dated 2023).

Legend:
[1] = tested on: M(IL-4) polarization of BMDMs; experiment: Flow cytometry of IL-4-associated cell surface markers in BMDMs; type: cell-based, mouse
Experimental: For all gene expression and flow cytometry experiments described below, day 6 BMDM were plated at 3×10^5 cell/well in 12-well plates. The next day, cells were treated with appropriate compounds (and duration as indicated in figures and below) in DMEM supplemented with 5% FBS, 2 mM L-glutamine, 100 units/mL, 100 μg/mL penicillin/streptomycin, 500 μM of sodium pyruvate and 5% v/v conditioned media containing macrophage colony stimulating factor (M-CSF).
For flow cytometry experiments involving etomoxir (FIG. 1G, FIG. 2A, FIG. 2D, FIG. 3A, FIG. 3B, FIG. 3G, FIG. 3H): BMDMs were mock-treated (media replacement only) or treated with 20 ng/mL of IL-4±3 μM or 200 μM of etomoxir for 48 hr. When measuring expression of M(IL-4)-associated genes in response to etomoxir (FIG. 1H, FIG. 2B), BMDMs were mock-treated or treated with 20 ng/mL of IL4±etomoxir as indicated for 24 hr.
For experiments involving respiratory chain inhibitors: BMDMs were mock-treated (media replacement only) or treated with 20 ng/mL of IL4±1.2 μM oligomycin (Oligo), 200 nM rotenone (Rot), 200 nM antimycin A (AntiA), 100 nM piericidin A (PierA), or 5 μM carboxyatractylate (CAT) for either 24 (FIG. 4G, FIG. 4H, FIG. 6G) or 48 hr (FIG. 4F, FIG. 7D). All inhibitors were given as co-treatments simultaneously with IL-4.
For experiments involving CoA supplementation (FIG. 10A, FIG. 10B, FIG. 10C, FIG. 10D, FIG. 10E, FIG. 9C, FIG. 9D): BMDMs were mock-treated (media replacement only) or treated with 20 ng/mL of IL4±etomoxir (concentration indicated in figures)±CoA (concentration indicated in figures) for 48 hr. Etomoxir and CoA were given as co-treatments simultaneously with IL-4.
Prior to FACS analysis, BMDMs were detached using 350 μL of Accutase, followed by two washes with FACS buffer (PBS+1% (v/v) BSA+0.05% (w/v) sodium azide). Anti-mouse CD16/32 antibody was used at a dilution of 1:500, while all other antibodies were used at a dilution of 1:250. All flow cytometry data were captured using BD FACSVerse flow cytometer and analyzed using the FlowJo X 10.0.7r2 software. In all, 2×104 live events were acquired for each sample (gated on DAPIneg). For analysis, CD206+/CD71+ and CD206+/CD301+ populations were gated based on Fluorescence Minus One (FMO) controls.

[2] = tested on: BMDMs; experiment: ADP- or FCCP-stimulated respiration in permeabilized WT, Cpt1a-/- and Cpt2-/- BMDMs; type: cell-based, mouse; conditions: 200 μM etomoxir; independent of CPT-1 activity; also stated for Treg cells
[3] = tested on: CPT-1a and CPT-1b; conditions: upon enzymatic conversion to etomoxiryl CoA; cited from earlier work
[4] = tested on: permeabilized HepG2 or A549 cells; experiment: ADP- vs FCCP-stimulated respiration in permeabilized cells, etomoxir added directly; type: cell-based; conditions: high concentrations of etomoxir
[5] = tested on: BMDMs; experiment: Intracellular free coenzyme A levels in BMDMs; type: cell-based, mouse; conditions: 200 μM etomoxir, IL-4, 20 hr
Experimental: On Day 6 of differentiation, BMDMs were seeded at 1.2×10^6 cells/well in 6-well plates. 24 hr later, BMDMs were mock-treated or co-treated with 20 ng/mL IL-4±200 μM etomoxir±500 μM CoA in DMEM supplemented with 5% FBS, 2 mM L-glutamine, 100 units/mL, […] penicillin/streptomycin, 500 μM of sodium pyruvate and 5% v/v conditioned media containing macrophage colony stimulating factor (M-CSF) for 20 hr. Prior to sample collections, cells were washed with 600 μL of 0.9% (w/v) NaCl twice. Three wells per replicate per treatment were combined in 2 mL centrifuge tubes and centrifuged at 500 g for 5 mins at 4° C. The supernatant was removed, and the cell pellet was re-suspended in 75 μL of ice-cold 0.7% (v/v) perchloric acid for 5 min. Samples were then centrifuged at 10,000 g for 7 mins at 4° C. and the resulting supernatant was adjusted to pH 7 with 2M NaOH and 500 mM K2HPO4. The coenzyme A concentration was determined with Coenzyme A Assay Kit following manufacturer's instructions (Sigma MAK034) using 40 μL of sample supernatant. Coenzyme A levels were normalized to total cellular protein (BCA method).

[6] = tested on: HepG2 hepatoma cells; experiment: Maximal respiration in intact HepG2 hepatoma cells (positive control); type: cell-based; conditions: 3 μM etomoxir
Experimental: All respirometry studies were conducted in either a Seahorse XF96 or XFe96 Analyzer. All experiments were conducted at 37° C., and at pH 7.4 (intact cells) or 7.2 (permeabilized cells and isolated mitochondria). Calculation of respiratory parameters was made according to standard protocols (Divakaruni, A. S., Paradyse, A., Ferrick, D. A., Murphy, A. N., and Jastroch, M. (2014a) Analysis and interpretation of microplate-based oxygen consumption and pH data. Meth. Enzym 547, 509-54), and all rates were corrected for non-mitochondrial respiration/background signal by subtracting the oxygen consumption rate insensitive to rotenone plus antimycin A.
Detailed description of FIG. 5. (FIG. 5A) Maximal FCCP-stimulated respiration in response to 3 μM etomoxir in six cell types (experimental conditions in Materials and Methods). […] (n≥3 independent biological replicates). (FIG. 5B) (Left) Maximal respiration in HepG2 cells offered 8 mM glucose, 2 mM glutamine, and 2 mM pyruvate in the experimental medium with BPTES and UK5099 (both at 3 μM)±3 μM etomoxir. (n=4 independent biological replicates). (Right) Maximal respiration in 3T3-L1 adipocytes offered 1 mM glucose and 0.5 mM carnitine in the experimental medium with increasing concentrations of etomoxir. (n=3 independent biological replicates). […]

[7] = tested on: BMDMs; conditions: concentrations as high as 100 μM etomoxir; cited from earlier work

**Q.** With `CCOC(=O)[C@@]1(CCCCCCOc2ccc(Cl)cc2)CO1` [etomoxir] as the compound, how does the “CD206+/CD71+ expression in WT and Cpt1a-/- macrophages” value ([1]; 3 μM etomoxir) read?
**A.** The value was “lack of an effect”.

**Q.** And the “expression levels of IL-4-induced CD206, CD71, CD301” value ([1]; 3 μM etomoxir, IL-4 20 ng/mL)?
**A.** The value was “no effect”.

**Q.** And the “CD206+/CD71+ expression in WT and Cpt1a-/- macrophages” value ([1]; 200 μM etomoxir)?
**A.** The value was “robust block”.

**Q.** And the “population of CD206+/CD71+ cells” value ([1]; 200 μM etomoxir, IL-4)?
**A.** The value was “strongly reduced”.

**Q.** And the “population of CD301+ cells” value ([1]; 200 μM etomoxir, IL-4)?
**A.** The value was “little effect”.

**Q.** What about the “population of CD206+/CD71+ cells” value ([1]; 500 μM CoA, etomoxir 3-100 μM) of the same compound?
**A.** Its value is “proportionally decreased”.

**Q.** And the “concentration at which significant changes in macrophage polarization were observed” value ([1]; CD206+/CD71+, IL-4)?
**A.** Its value is > 100 µM.

**Q.** What about the “phosphorylating and uncoupled respiration” value [2] of the same compound?
**A.** The value was “pronounced off-target effect on phosphorylating respiration with a secondary effect at uncoupled respiration”.

**Q.** And the IC50 [3]?
**A.** Its IC50 is 10 to 700 nM.

**Q.** And the “respiration driven by ADP versus FCCP” value [4]?
**A.** Its value is “greater inhibitory effect on respiration driven by ADP versus FCCP”.

**Q.** And the “intracellular free CoA levels” value [5]?
**A.** Its value is “significantly dropped”.

**Q.** And the respiration [6]?
**A.** The respiration was “sufficient to inhibit respiration”.

**Q.** What about the “respiration in BMDMs” value [7] of the same compound?
**A.** The value was “lack of significant changes in respiration”.
